These results are taken from PubChem BioAssay AID624384 (Sanford-Burnham Center for Chemical Genomics, 2012).

The structures appear in SMILES notation. Active and inactive are the calls of the source. How the calls were made is not given here. Some results are limits rather than exact numbers.

In this assay the target is Small ubiquitin-related modifier 2 (Homo sapiens) (UniProt P61956). Kind of assay: SUMO2 binding disruption by SUMO1 hits – biochemical, FRET, human SUMO2, uHTS hits, selectivity assay for SUMO1 interaction inhibitor project, dose response (AID 624384). As to conditions: SUMO2 FRET protein-protein interaction selectivity assay.
Chain of Small ubiquitin-related modifier 2 (Homo sapiens) (P61956 whole entry, looked up): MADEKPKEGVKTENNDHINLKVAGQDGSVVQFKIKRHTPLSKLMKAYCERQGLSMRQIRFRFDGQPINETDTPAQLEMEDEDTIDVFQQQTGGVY

By IC50 is commonly meant the concentration that gives 50% inhibition. For the compound `C[c-]1[c-](C)[c-](C)[c-](C)[c-]1C.[Fe].c1cc2nccc(N3CCCC3)[c-]2c1` (stereo unspecified), the IC50 is > 66 µM (inactive).
